In patent US20130261066A1, “TREATMENT OF INFLAMMATORY BOWEL DISEASES USING A TRIPEPTIDE” (THE RESEARCH FOUNDATION OF STATE UNIVERSITY OF NEW YORK, priority 2010, published 2013):

Test system: NF-kB
Assay: Inhibition of NF-kB by D-amino-acid and cyclized peptides
Source text: The following acetylated peptides, composed of D amino acids, were synthesized and tested for inhibition of NF-kB: 1) Ac-dGln-dALa-dTrp (SEQ ID NO:9); and 2) Ac-dPhe-dLeu-dLys-dGln-dALa-dTrp (SEQ ID NO:10). […] The following acetylated peptide, cyclized through its N- and C-terminals, was synthesized and tested for inhibition of NF-kB: Ac-Phe-Leu-Lys-Gln-Ala-Trp (SEQ ID NO:6).

Substance	inhibition of NF-kB
Ac-Phe-Leu-Lys-Gln-Ala-Trp (Ac-cyclo(FLKQAW))	effective inhibition of NF-kB
Ac-dGln-dALa-dTrp	effective inhibition of NF-kB
Ac-dPhe-dLeu-dLys-dGln-dALa-dTrp	effective inhibition of NF-kB
